Laboratory results taken from a compilation of properties of binary mixtures (doi:10.1016/j.jct.2020.106232).

Test: xn = mol fraction of the nth substance listed
Conditions: 100 kPa

CCCCCO + CCCC[n+]1ccn(C)c1.O=[N+]([O-])[O-]
x2 = 0
Conditions | viscosity [mPa·s]
293.15 K | 4.03
303.15 K | 3.04
313.15 K | 2.33
323.15 K | 1.81

CCCC[n+]1ccn(C)c1.O=[N+]([O-])[O-] + CCCCCO
viscosity [mPa·s]
Conditions | 293.15 K | 303.15 K | 313.15 K | 323.15 K
x1 = 0.0824 | 5.32 | 3.84 | 2.94 | –
x1 = 0.1538 | 6.83 | 4.88 | 3.59 | 2.69
x1 = 0.2318 | 8.87 | 6.36 | 4.68 | 3.38
x1 = 0.3425 | 13.1 | 9.46 | 6.76 | 4.63
x1 = 0.4363 | – | 13.2 | 9.14 | 6.19
x1 = 0.5668 | – | 21 | 14 | 9.37
x1 = 0.6481 | 40.3 | 28.1 | – | 12.31
x1 = 0.7481 | – | 41 | 27 | 17.3
x1 = 0.8416 | 94.9 | 59.8 | – | 24.3
x1 = 0.9415 | 160 | 94 | – | –
x1 = 1 | 224 | 125 | 75.1 | 45.2
